Measured values reported in patent US5073563A, “Alkoxycoumarins substituted by a heterocyclic radical, their preparation and therapeutic agents containing these compounds” (BASF Aktiengesellschaft, priority 1988, dated 1991).

Legend:
MAO B = biological target: T1, MAO B (Rattus norvegicus, UniProt P19643); assay: MAO B inhibition in dilute rat brain homogenate (14C substrate, 20 min at 37° C); assay type: biochemical; conditions: for IC50 ratio MAO A / MAO B: quotient of IC50 MAO A and IC50 MAO B (selectivity for MAO B), 20 min; for IC50: rat brain homogenate, 14C-phenylethylamine or 14C-tryptamine 0.4 μmol/l, 20 minutes at 37° C, logit-log regression
T1 construct: determined in dilute rat brain homogenate; from tissue; host or cells: rat brain homogenate
T1 sequence (P19643 1-520): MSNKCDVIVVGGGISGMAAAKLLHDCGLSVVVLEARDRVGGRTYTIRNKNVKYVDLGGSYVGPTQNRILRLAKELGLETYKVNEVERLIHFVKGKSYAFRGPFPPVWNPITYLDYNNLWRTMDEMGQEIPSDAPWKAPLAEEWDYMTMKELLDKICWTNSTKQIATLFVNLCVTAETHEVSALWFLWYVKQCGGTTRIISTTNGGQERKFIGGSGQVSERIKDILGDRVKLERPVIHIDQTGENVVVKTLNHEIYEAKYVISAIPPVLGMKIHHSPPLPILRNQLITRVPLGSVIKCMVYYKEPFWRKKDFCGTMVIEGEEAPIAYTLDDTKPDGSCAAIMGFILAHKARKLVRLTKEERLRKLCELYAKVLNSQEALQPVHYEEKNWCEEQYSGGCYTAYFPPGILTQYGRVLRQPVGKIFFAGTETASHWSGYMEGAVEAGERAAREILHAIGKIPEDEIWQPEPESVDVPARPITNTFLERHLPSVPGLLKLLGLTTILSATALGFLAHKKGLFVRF
Experimental: (§1) The MAO-inhibiting activity of the novel compounds can be determined using standard methods. […] The mixture was incubated for 20 minutes at 37° C.
(§2) The blank value was determined in similar mixtures with an incubation time of t=0 min.
(§3) From the inhibitory values determined at the various inhibitor concentrations against a control, the mean inhibitory concentration (IC50) was calculated by linear regression following logit-log transformation.

MAO A = biological target: T2, MAO A (Rattus norvegicus, UniProt P21396); assay: MAO A inhibition in dilute rat brain homogenate (14C substrate, 20 min at 37° C); assay type: biochemical; conditions: 14C-phenylethylamine or 14C-tryptamine 0.4 μmol/l, logit-log regression
T2 construct: determined in dilute rat brain homogenate; from tissue; host or cells: rat brain homogenate
T2 sequence (P21396 1-526): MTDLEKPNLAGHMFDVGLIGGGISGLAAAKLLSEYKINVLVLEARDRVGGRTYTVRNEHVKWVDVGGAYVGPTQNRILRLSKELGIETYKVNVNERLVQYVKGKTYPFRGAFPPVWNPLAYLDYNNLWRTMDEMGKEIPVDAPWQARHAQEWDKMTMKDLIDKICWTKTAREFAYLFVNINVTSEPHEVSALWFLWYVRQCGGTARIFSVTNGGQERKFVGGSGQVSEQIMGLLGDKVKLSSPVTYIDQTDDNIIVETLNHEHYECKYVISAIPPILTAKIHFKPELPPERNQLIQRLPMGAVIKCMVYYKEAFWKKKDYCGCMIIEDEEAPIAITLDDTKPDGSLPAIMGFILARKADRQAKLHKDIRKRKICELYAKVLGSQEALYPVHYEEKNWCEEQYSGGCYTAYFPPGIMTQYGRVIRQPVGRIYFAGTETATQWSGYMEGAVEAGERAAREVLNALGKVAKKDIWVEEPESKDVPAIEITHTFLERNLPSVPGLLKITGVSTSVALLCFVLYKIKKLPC
Experimental: as §1, §2, §3

With Cc1nnc(COc2ccc3c(C)c(C)c(=O)oc3c2)o1 [Example 1, 3,4-Dimethyl-7-(2-methyl-1,3,4-oxadiazol-5-yl)-methoxycoumarin] the “IC50 ratio MAO A / MAO B” value (MAO B) was 370.

In the case of Cc1nnc(COc2ccc3c(C)c(C)c(=O)oc3c2)s1 [Example 2, 3,4-Dimethyl-7-(2-methyl-1,3,4-thiadiazol-5-yl)-methoxycoumarin], the IC50 (MAO A) is reported as 3600 nM, the “IC50 ratio MAO A / MAO B” value (MAO B) is reported as 1200 and the IC50 (MAO B) is reported as 3 nM.

In the case of Cc1cc(COc2ccc3c(C)c(C)c(=O)oc3c2)on1 [Example 3, 3,4-Dimethyl-7-(3-methylisoxazol-5-yl)-methoxycoumarin], the IC50 (MAO A) is reported as 1500 nM, the “IC50 ratio MAO A / MAO B” value (MAO B) is reported as 710 and the IC50 (MAO B) is reported as 2.1 nM.

For CCCc1cc(COc2ccc3c(C)c(C)c(=O)oc3c2)on1 [Example 4, 3,4-Dimethyl-7-(3-n-propylisoxazol-5-yl)-methoxycoumarin], the IC50 (MAO A) was about 10000 nM, the “IC50 ratio MAO A / MAO B” value (MAO B) was ~ 5900 and the IC50 (MAO B) was 1.7 nM.

COCc1cc(COc2ccc3c(C)c(C)c(=O)oc3c2)on1 [Example 6, 7-(3-Methoxymethylisoxazol-5-yl)-methoxy-3,4-dimethylcoumarin] was tested, and the IC50 (MAO A) was about 10000 nM, the “IC50 ratio MAO A / MAO B” value (MAO B) was ~ 2200 and the IC50 (MAO B) was 4.6 nM.

For CCc1nnc(COc2ccc3c(C)c(C)c(=O)oc3c2)o1 [Example 7, 7-(2-Ethyl-1,3,4-oxadiazol-5-yl)-methoxy-3,4-dimethylcoumarin], the IC50 (MAO A) was about 10000 nM, the “IC50 ratio MAO A / MAO B” value (MAO B) was ~ 900 and the IC50 (MAO B) was 11 nM.

Cc1c(Cl)c(=O)oc2cc(OCc3csc(C4CC4)n3)c(Cl)cc12 [Example 10, 3,6-Dichloro-4-methyl-7-(2-cyclopropylthiazol-4-yl)-methoxycoumarin] was tested, and the IC50 (MAO A) was over 10000 nM, the “IC50 ratio MAO A / MAO B” value (MAO B) was over 4500 and the IC50 (MAO B) was 2.2 nM.

With Cc1nnc(COc2ccc3cc(C)c(=O)oc3c2)s1 [Example 13, 3-Methyl-7-(2-methyl-1,3,4-thiadiazol-5-yl)-methoxycoumarin] the IC50 (MAO A) was over 10000 nM, the “IC50 ratio MAO A / MAO B” value (MAO B) was over 667 and the IC50 (MAO B) was 15 nM.

With Cc1c(C)c2ccc(OCC3COc4ccccc4O3)cc2oc1=O (stereo not drawn) [Example 21, 7-(Benzodioxan-2-yl)-methoxy-3,4-dimethylcoumarin] the IC50 (MAO A) was about 10000 nM, the “IC50 ratio MAO A / MAO B” value (MAO B) was ~ 1300 and the IC50 (MAO B) was 7.7 nM.

Cc1c(C)c2ccc(OCc3coc(Cc4ccccc4)c3)cc2oc1=O [Example 22, 7-(2-Benzylfuran-4-yl)-methoxy-3,4-dimethylcoumarin] was tested, and the IC50 (MAO A) was over 10000 nM, the “IC50 ratio MAO A / MAO B” value (MAO B) was over 6250 and the IC50 (MAO B) was 1.6 nM.

Cc1nc(COc2ccc3c(C)c(C)c(=O)oc3c2)cs1 [Example 24, 3,4-Dimethyl-7-(2-methylthiazol-4-yl)-methoxycoumarin] was tested, and the IC50 (MAO A) was about 10000 nM, the “IC50 ratio MAO A / MAO B” value (MAO B) was ~ 3300 and the IC50 (MAO B) was 3 nM.

Cc1c(C)c2ccc(OCc3coc(Cc4cccc(Cl)c4)c3)cc2oc1=O [Example 25, 7-[2-(3-Chlorobenzyl)-furan-4-yl]-methoxy-3,4-dimethylcoumarin] was tested, and the IC50 (MAO A) was over 10000 nM, the “IC50 ratio MAO A / MAO B” value (MAO B) was over 590 and the IC50 (MAO B) was 17 nM.

In the case of Cc1c(C)c2ccc(OCc3nc(C(C)C)no3)cc2oc1=O [Example 26, 7-(3-Iospropyl-1,2,4-oxadiazol-5-yl)-methoxy-3,4-dimethylcoumarin], the “IC50 ratio MAO A / MAO B” value (MAO B) is reported as over 7700 and the IC50 (MAO B) is reported as 1.3 nM.

For Cc1c(C)c2ccc(OCc3cc(C(C)C)n(C)n3)cc2oc1=O [Example 29, 7-(5-Isopropyl-1-methylpyrazol-3-yl)-methoxy-3,4-dimethylcoumarin], the IC50 (MAO A) was over 10000 nM, the “IC50 ratio MAO A / MAO B” value (MAO B) was over 4500 and the IC50 (MAO B) was 2.2 nM.

For Cc1nnc(COc2ccc3c(C)c(Cl)c(=O)oc3c2)s1 [Example 30, 3-Chloro-4-methyl-7-(2-methyl-1,3,4-thiadiazol-5-yl)-methoxycoumarin], the IC50 (MAO A) was over 10000 nM, the “IC50 ratio MAO A / MAO B” value (MAO B) was over 1700 and the IC50 (MAO B) was 5.7 nM.

For Cc1nnc(COc2ccc3c4c(c(=O)oc3c2)CCCC4)s1 [Example 32, 3,4-Tetramethylen-7-(2-methyl-1,3,4-thiadiazol-5-yl)-methoxycoumarin], the IC50 (MAO A) was over 10000 nM, the “IC50 ratio MAO A / MAO B” value (MAO B) was over 1400 and the IC50 (MAO B) was 7.1 nM.
